# Tested on: mouse splenocytes
# Test: Microarray gene expression of splenocytes from Copaxone- or Polimunol-immunized mice activated ex vivo with Copaxone or Polimunol
# Format: cell-based
# Protocol: All experimental procedures conformed to accepted ethical standards for use of animals in research and were in accordance with Committee for the Care and Use of Experimental Animals guidelines and approved by the Teva Institutional Animal Care and Use Committee. For these experiments, 8- to 12-week-old female (Balb/c X SJL) F1 mice (Janvier, France) were purchased. Mice were kept at 21±3° C.; the relative humidity was 30-70%, the light/dark cycle was 12/12 h. Animals were maintained on a standard rodent pellet diet and sterile filtered tap water available ad libitum.
# To stimulate induction of GA-reactive T cells, twelve mice were injected with 100 μL of a 2.5 mg/mL solution of GA reference standard (GA-RS) in phosphate-buffered saline (250 μg GARS per mouse). GA-RS (Teva) is a selected GA drug substance batch defined as the standard batch and used as a reference in quality control release tests of all Copaxone® batches. Another group of twelve mice were injected with 100 μL of a 2.5 mg/mL solution of Polimunol in phosphate-buffered saline (250 μg Polimunol per mouse). Polimunol is a proposed generic manufactured a company other than Teva. […] A single cell suspension was prepared. After red blood cells lysis, splenocytes from the same immunization group were pulled and resuspended to a final concentration of 10×10^6 cells/mL in defined cell culture media (DCCM1) (Biological Industries, Beit Haemek, Israel) (96.7% v/v) enriched with L-glutamine 2 mM (1% v/v), MEM Non-Essential Amino Acids 2 mM (1% v/v), sodium pyruvate 1 mM (1% v/v), antibiotic/antimycotic solution (0.2% v/v) and 2-mercaptoethanol 50 mM (0.1% v/v).
# Splenocytes were treated with activator samples diluted in medium (125 μL per well of 80 μg/mL solutions, final concentration in the well: 40 μg/mL) of: i) 3 different batches of GA drug product manufactured by Teva ii) one batch of proposed generic (Polimunol). Polimunol is a product marketed as generic GA and manufactured by a company other than Teva (i.e. Synthon). […] Splenocytes (125 μL 10×10^6 SPL cell/mL suspension) were added to the activator solutions. Each activator sample was loaded in two different plates. One for the cells from mice immunized with GA and one for cells from mice immunized with proposed generic. Plates were incubated for 24 h at 37° C. Cells were collected from the wells and were centrifuged at 300 g for 5 minutes. Supernatants were aspirated and cell pellets were resuspended in RLT buffer (from RNeasy mini kit of Qiagen, Cat #74106) for cell lysis. The cell lysates were centrifuged and supernatants were collected and frozen at −70° C. Samples were sent for further processing.
# For additional detail on experimental methods used in mouse studies, please refer to publications [Bakshi et al; Towfic et al]. Note that in this study, mice were immunized with either Copaxone® or Polimunol, and subsequently splenocytes were isolated and treated ex vivo with Copaxone® or Polimunol. RNA was extracted and expression profiled across the entire genome using the Affymetrix Mouse Genome 430 2 chip. Three lots of Copaxone®, and one lot of Polimunol were comparatively tested in six replicates each.
# Outlier samples were identified using the R package ArrayQCMetrics and excluded from further data processing steps. A sample was considered an outlier if it failed more than half of the included tests either before or after RMA normalization. Data were RMA normalized using the Affy R package.
# Correction for batch variation was performed using ComBat as described above (THP-1 methods). Date of microarray experiment was used as batch, and the combination of treatment and immunization was used as covariate.
# Differentially expressed probesets were identified across conditions using linear models for microarray data (LIMMA; Smyth, G. K. (2004)), a standard R Bioconductor package. Linear models and empirical Bayes methods for assessing differential expression in microarray experiments. […]
substance,measurement,setting,value
glatiramer acetate [Copaxone®],Foxp3 expression,"Copaxone immunization, adj p<3.4e-23",upregulated
same,Gpr83 expression,"Copaxone immunization, two probesets, adj p<4.2e-33 and 9.0e-31",upregulated
same,Probesets downregulated by Copaxone relative to medium,Copaxone-immunized mice,"8,305"
same,"Probesets downregulated by Copaxone relative to medium, |FC|≧2",Copaxone-immunized mice,485
same,Probesets significantly modulated by Copaxone relative to medium,Copaxone-immunized mice,"16,647"
same,Probesets upregulated by Copaxone relative to medium,Copaxone-immunized mice,"8,342"
same,"Probesets upregulated by Copaxone relative to medium, |FC|≧2",Copaxone-immunized mice,411

# From patent US20170003277A1 (priority 2015, published 2017)
